Measurements reported in patent publication US20120283403A1, “Phenylboronic Acid Monomer and Phenylboronic Acid Polymer” (National Institute for Materials Science, priority 2010, published 2012).

Text: Subsequently, for the sample 1, the comparative sample 1 and the comparative sample 2, the relationships between glucose concentrations and apparent changes in pKa were derived by acid-base titration under various glucose concentration conditions (0 g/L, 1 g/L, 3 g/L, 5 g/L, and 10 g/L).

C=CC(=O)NCCNC(=O)c1ccc(B(O)O)cc1F [sample 1, 4-(2-acrylamideethylcarbamoyl)-3-fulorophenylboronic acid]
apparent pKa (all glucose concentrations (0, 1, 3, 5 and 10 g/L), FIG. 2, samples a1 to a5): < 7.4 | degrees of decrease in pKa according to the increase in the concentrations of glucose (compared with comparative samples 1 and 2, glucose 0 to 10 g/L): excellent
